Each block holds one compound with its values, some of them ahead of it.
Assays:
[1] = Remote loading of taxane derivative precipitates into liposomes; format: physicochemical
Method: Liposomes were prepared using the extrusion and purification method described in Example 1. The lipid composition was POPC/cholesterol (3/0.5, mol/mol). The trapping agent consisted of zinc acetate or magnesium acetate at 120 mM. A solution of either unmodify carbazitaxel or 2′succinylcarbazitaxel in DMSO at 20 mg/mL was added to the liposome solution slowly over 30 seconds while vortexing to produce a drug precipitate in the liposome solution. The target drug to phospholipid ratio was 100 g/mole lipid for unmodified carbazitaxel and 100, 150 or 200 g for succinylcarbazitaxel/mol phospholipid. The solutions are heated for 30 min at 45° C. and then cooled on ice. A sample was removed to determine the input drug to lipid ratio and the remaining solution was spun in a centrifuge at 12,000 RPM for 5 minutes to pellet any unloaded drug. The supernatant was further purified from unloaded drug using a Sephadex G25 size exclusion column eluted with 5 mM HEPES, 145 mM NaCl at pH 6.5. The purified liposomes were analyzed for drug and lipid content by HPLC as described in Example 16.
To encapsulate the 2′ morpholine-4-ylethyl amide of succinylcabazitaxel, liposomes were prepared with a lipid composition of HSPC/DSPG/Chol/PEG-DSPE in the ratio 2/0.6/2/0.3 containing 1.0 M (SO4) TEA dextran sulfate. The liposomes were separated form the non-entrapped TEA dextran sulfate by anion exchange and then by dialysis against 5 mM Hepes buffered 10% (wt/wt) sucrose, pH 6.5. 2′ morpholine-4-ylethyl amide of succinylcabazitaxel was dissolved in DMSO at 10 mg/mL.
In a typical preparation, the DMSO 2′ morpholine-4-ylethyl amide of succinylcabazitaxel solution was added dropwise to the liposomes at room temperature while the liposomes suspension was rapidly mixed on a vortex mixer. […] The purified liposomes were analyzed for drug and lipid content by HPLC as described in Example 16. […]

[2] = Remote loading of amphotericin B precipitate into TEA dextran sulfate liposomes; format: physicochemical
Method: Liposomes were prepared with a lipid composition of HSPC/DSPG/Chol/PEG-DSPE in the ratio 2/0.6/2/0.3 containing 1.0 M (SO4) TEA dextran sulfate. The liposomes were separated form the non-entrapped TEA dextran sulfate by anion exchange and then by dialysis against 5 mM Hepes buffered 10% (wt/wt) sucrose pH 6.5. The liposomes were exchanged into 0.01 N HCL, 10% sucrose pH 2.0 before drug loading. Amphotericin B was dissolved in DMSO at 10 mg/ml.
In a typical preparation, the DMSO amphotericin B solution was added dropwise to the liposomes at room temperature while the liposomes suspension was rapidly mixed on a vortex mixer. The concentration of the liposomal lipid was 5 umol (phospholipid)/mL and 0.1 mL of the amphotericin B solution was added per mL of liposomes so that the final amphotericin B concentration was about 1.0 mg/ml AmB and the final DMSO concentration was about 10% (V/V). By adjusting the amount of liposomes in the preparation various AmB/PL ratios were tested, e.g., 200, 400, 800 g/mol.
The samples were heated at 65° C. for 15 min. Then cooled on ice for 30 minutes. The preparation was then passed through a PD10 (Sephadex G25) gel filtration column to remove any precipitated amphotericin B that was not incorporated into the liposome. […] The diameter of the drug loaded liposomes was not changed at the 200 and 400 g drug/mole lipid input ratio and were slighted larger circa 10% in the 800 g drug lipid ratio. The purified liposomes were analyzed for drug and lipid content by the HPLC method as described in Example 1.

Structure (SMILES): CO[C@H]1C(=O)[C@]2(C)[C@@H](OC)C[C@H]3OC[C@@]3(OC(C)=O)[C@H]2[C@H](OC(=O)c2ccccc2)[C@]2(O)C[C@H](OC(=O)[C@H](OC(=O)CCC(=O)O)[C@@H](NC(=O)OC(C)(C)C)c3ccccc3)C(C)=C1C2(C)C [2′ succinylcabazitaxel, 2′-succinylcarbazitaxel]
loading efficacy ([1]; POPC/cholesterol liposomes with zinc acetate or magnesium acetate 120 mM, 45 C 30 min): greater than 85%

amphotericin B concentration to which final liposome preparation was readily concentrated ([2]; 5 mM Hepes, 144 mM NaCl, pH 7.4 buffer): 10 mg/mL | diameter of the drug loaded liposomes ([2]; 200 and 400 g drug/mole lipid input ratio): not changed | increase of diameter of the drug loaded liposomes ([2]; 800 g drug lipid ratio): circa 10% | remote loading efficiency ([2]; input 200 g drug/mole lipid): 96% | drug content of purified preparation ([2]; input 400 g drug/mole of lipid): 360 g amphotericin B/mole lipid | encapsulated ([2]; input 400 g drug/mole of lipid): about 90% | drug content of purified preparation ([2]; input 800 g drug/mole lipid): 560 g amphotericin B/mole lipid | encapsulated ([2]; input 800 g drug/mole lipid): about 70%
Structure (SMILES): C[C@@H]1[C@H](O)[C@@H](C)/C=C/C=C/C=C/C=C/C=C/C=C/C=C/[C@H](O[C@@H]2O[C@H](C)[C@@H](O)[C@H](N)[C@@H]2O)C[C@@H]2O[C@](O)(C[C@@H](O)C[C@@H](O)[C@H](O)CC[C@@H](O)C[C@@H](O)CC(=O)O[C@H]1C)C[C@H](O)[C@H]2C(=O)O [Amphotericin B]

efficiency of loading ([1]; 100 g carbazitaxel/mol phospholipid, calcium acetate and magnesium acetate liposomes (so in the source)): very low | encapsulation, % of the added drug ([1]; TEA-dextran sulfate liposomes): < 5%
Structure (SMILES): CO[C@H]1C(=O)[C@]2(C)[C@@H](OC)C[C@H]3OC[C@@]3(OC(C)=O)[C@H]2[C@H](OC(=O)c2ccccc2)[C@]2(O)C[C@H](OC(=O)[C@H](O)[C@@H](NC(=O)OC(C)(C)C)c3ccccc3)C(C)=C1C2(C)C [cabazitaxel]

Reference: patent US12070471B2, “Remote loading of sparingly water-soluble drugs into lipid vesicles” (CELATOR PHARMACEUTICALS, INC., priority 2014, dated 2024)
